Tested on: bovine brain glycolipid transfer protein (GTP) cDNA (660 bp)
Experiment: PCR amplification of GTP with lower denaturation/extension temperatures
Type: biochemical
Details: for Potency: annealing 55° C., normalized: 1,5-pentanediol (95/72° C.) = 1; for Effective: concentration interval over which target band minus control is at least 50% of maximum volume
Experimental: Amplification reactions were carried out under the following general conditions. Those skilled in the art will appreciate, however, that to the extent that the conditions (set forth in this application) required for specific experiments described in this example were inconsistent with the following general conditions, limited exceptions to the following general conditions were made The general conditions were as follows: 10 Mm Tris-HCl (Ph 8.8), 50 Mm KCl, 1.5 Mm MgCl2, 0.01% (w/v) gelatin, 0.2 Um primers, 0.06 ng/ul template, 0.2 Mm each Dntp, 0.04 U/ul Taq polymerase. The templates used were bovine brain N-WASP cDNA (1518 bp), a 996 by segment of human myeloid leukocyte c-jun cDNA, a 511 by segment of human prostate-specific membrane antigen (PSM) cDNA, and bovine brain glycolipid transfer protein (GTP) cDNA (660 bp). cDNA synthesis was carried out using the FIRST-STRAND® RT-PCR kit from Stratagene on the respective mRNAs purchased from Clontech. All amplification reactions for gene were carried out using a single master batch of cDNA. Taq polymerase and dNTPs were obtained from Stratagene. Primers were obtained from Genosys. Primer melting temperatures (Tms) were calculated using the Genosys oligo calculator program. The sequences of the primers were as follows.
Polymerase chain reactions for the N-WASP gene were conducted on a ROBOCYCLER® Gradient 40 thermal cycler from Stratagene using 100 ul solutions in 600 ul thin-walled tubes. For expediency, amplification of c-jun, PSM and GTP was carried out in a ROBOCYCLER® Gradient 96 thermal cycler from Stratagene using 50 ul solutions in 200 ul thin-walled tubes. Prior to Taq polymerase addition, a hotstart protocol was carried out that consisted of an initial cycle of 95° C. for 5 minutes (11) to ensure complete first-strand separation, followed by a cycle of 54° C. for 5 minutes. Amplifications were run for 30 cycles. Denaturation was done for 1 minute at the minimum temperatures that yielded discernable amplification: 92° C. for N-WASP and 95° C. for c-jun, PSM and GTP. Extension was done at 72° C. for periods depending on target length: 2 minutes for N-WASP, 1.5 minutes for c-jun and GTP, and 1 minute for PSM. Annealings were carried out either at fixed concentrations of additives using temperature gradients of 38-56° C. for N-WASP and 44-58° C. for the other targets, or at varying concentrations of additives using fixed temperatures of 41° C. for N-WASP, 50° C. for c-jun and PSM, and 54° C. for GTP.
Amplification products were analyzed by agarose gel electrophoresis on 0.8% agarose gels in which 20 ul reaction products were loaded with 4 ul loading buffer. Gels were stained with ethidium bromide, visualized on a UV transilluminator (Fisher), and documented by photography. Densitometric quantitation of amplification products was carried out using IMAGE SCANNER® and IMAGE MASTER® software from Amersham Pharmacia. Background correction was done using the software's rolling disc method.
Two phases of investigations were carried out into the use of 62° C. extension temperature in PCR reactions. The first involved concentration gradients with 1,2-butanediol and 1,5-pentanediol employing 62° C. extension and 95° C. denaturation. The first template used was GTP. A larger range of concentrations was employed than usual in the experiments due to the anticipated increase in effective range. These concentrations were: 0.1, 0.31, 0.5, 0.6, 0.8, 0.9 and 1.1M for 1,2-butanediol and 0.01, 0.2, 0.3, 0.4, 0.5, 0.7 and 1.0M for 1,5-pentanediol. The second phase of investigation involved experiments in which the denaturation temperature was lowered to 92° C. The following concentrations were tested: 1,2-butanediol—0.1, 0.3, 0.5, 0.6, 0.7, 0.9, 1.1, 1.3, and 1.4M; 1,5-pentanediol: 0.1, 0.2, 0.3, 0.4, 0.5, 0.7, 1.0, and 1.4M. 1,2-butanediol was also tested with the more GC-rich template c-jun. The following concentrations were tested: 0.1, 0.3, 0.5, 0.7, 0.9, 1.1, 1.4M.

[1] = 92/62° C. denaturation/extension
[2] = 95/62° C. denaturation/extension

Structure (SMILES) | Potency [1] | Effective (92/62° C.) | Potency [2] | Effective (95/62° C.) | cutoff concentration (92° C. denaturation, 62° C. extension) [M]
CCC(O)CO (stereo not drawn) [1,2-Butanediol] | 1.50 | 0.50-1.27 | 0.88 | 0.10-0.82 | –
OCCCCCO [1,5-Pentanediol] | 1.97 | 0.29-0.90 | 1.49 | 0.15-0.63 | 1.0
